# Measurements: patent US20250340557A1, “PYRIMIDINE DERIVATIVE” (ASKA PHARMACEUTICAL CO., LTD., priority 2022, published 2025)
# Biological target: T1, human mPGES-1 (Homo sapiens, UniProt O14684)
# T1 construct: made in house; host or cells: COS-1 cells (transient transfection; microsomal fraction used as enzyme)
# T1 sequence (O14684 1-152): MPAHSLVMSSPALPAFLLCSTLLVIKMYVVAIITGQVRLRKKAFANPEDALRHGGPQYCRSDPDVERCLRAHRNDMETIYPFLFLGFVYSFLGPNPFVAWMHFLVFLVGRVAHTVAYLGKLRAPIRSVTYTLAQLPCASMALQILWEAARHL
# Assay: Test for mPGES-1 inhibitory activity (microsomal enzyme, PGE2 EIA)
# Type: biochemical
# Settings: microsomes of COS-1 cells transfected with human mPGES-1 cDNA; PGH2 1 μM; 4° C., 4 minutes; PGE2 by EIA; read-out: h mPGES1 IC50
# Summary of the method: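 Enzyme source was microsomes from COS-1 cells transiently expressing human mPGES-1, in sodium phosphate pH 7.2 with 2.5 mM GSH, 1 mM EDTA and 2% DMSO final. After a 15 min preincubation with compound at 4 °C, 1 μM PGH2 (final) reacted for 4 min at 4 °C.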
row,SMILES,IC50 [nM]
1,"CCc1nc(-c2c(C(F)(F)F)ccc(CNC(=O)[C@H]3C[C@H](OCc4ccccc4C(F)(F)F)C3)c2F)[nH]c(=O)c1F [Example 232, trans-N-[3-(4-ethyl-5-fluoro-6-oxo-1,6-dihydropyrimidin-2-yl)-2-fluoro-4-(trifluoromethyl)benzyl]-3-{[2-(trifluoromethyl)benzyl]oxy}cyclobutane-1-carboxamide]",< 1
2,"CCc1nc(-c2c(C(F)(F)F)ccc(CNC(=O)[C@H]3C[C@H](OCc4cccc(C(F)(F)F)c4)C3)c2F)[nH]c(=O)c1F [Example 233, trans-N-[3-(4-ethyl-5-fluoro-6-oxo-1,6-dihydropyrimidin-2-yl)-2-fluoro-4-(trifluoromethyl)benzyl]-3-{[3-(trifluoromethyl)benzyl]oxy}cyclobutane-1-carboxamide]",< 1
3,"CCc1nc(-c2c(C(F)(F)F)ccc(CNC(=O)[C@H]3C[C@H](OCc4ccc(C(F)(F)F)cc4)C3)c2F)[nH]c(=O)c1F [Example 234, trans-N-[3-(4-ethyl-5-fluoro-6-oxo-1,6-dihydropyrimidin-2-yl)-2-fluoro-4-(trifluoromethyl)benzyl]-3-{[4-(trifluoromethyl)benzyl]oxy}cyclobutane-1-carboxamide]",< 1
4,"CCc1nc(-c2c(C(F)(F)F)ccc(CNC(=O)[C@H]3C[C@H](OCc4ccc(F)cc4F)C3)c2F)[nH]c(=O)c1F [Example 235, trans-3-[(2,4-difluorobenzyl)oxy]-N-[3-(4-ethyl-5-fluoro-6-oxo-1,6-dihydropyrimidin-2-yl)-2-fluoro-4-(trifluoromethyl)benzyl]cyclobutane-1-carboxamide]",1.1
5,"CCc1nc(-c2c(C(F)(F)F)ccc(CNC(=O)[C@H]3C[C@H](OCc4ccc(Cl)cc4F)C3)c2F)[nH]c(=O)c1F [Example 236, trans-3-[(4-chloro-2-fluorobenzyl)oxy]-N-[3-(4-ethyl-5-fluoro-6-oxo-1,6-dihydropyrimidin-2-yl)-2-fluoro-4-(trifluoromethyl)benzyl]cyclobutane-1-carboxamide]",< 1
6,"CCc1nc(-c2c(C(F)(F)F)ccc(CNC(=O)[C@H]3C[C@H](OCc4ccc(F)c(F)c4)C3)c2F)[nH]c(=O)c1F [Example 237, trans-3-[(3,4-difluorobenzyl)oxy]-N-[3-(4-ethyl-5-fluoro-6-oxo-1,6-dihydropyrimidin-2-yl)-2-fluoro-4-(trifluoromethyl)benzyl]cyclobutane-1-carboxamide]",< 1
7,"CCc1nc(-c2c(C(F)(F)F)ccc(CNC(=O)[C@H]3C[C@H](OCc4cc(F)cc(F)c4)C3)c2F)[nH]c(=O)c1F [Example 238, trans-3-[(3,5-difluorobenzyl)oxy]-N-[3-(4-ethyl-5-fluoro-6-oxo-1,6-dihydropyrimidin-2-yl)-2-fluoro-4-(trifluoromethyl)benzyl]cyclobutane-1-carboxamide]",< 1
8,"CCc1nc(-c2c(C(F)(F)F)ccc(CNC(=O)[C@H]3C[C@H](OCc4cccc(F)c4)C3)c2F)[nH]c(=O)c1F [Example 239, trans-N-[3-(4-ethyl-5-fluoro-6-oxo-1,6-dihydropyrimidin-2-yl)-2-fluoro-4-(trifluoromethyl)benzyl]-3-[(3-fluorobenzyl)oxy]cyclobutane-1-carboxamide]",< 1
9,"CCc1nc(-c2c(C(F)(F)F)ccc(CNC(=O)[C@H]3C[C@H](OCc4cccc(F)c4F)C3)c2F)[nH]c(=O)c1F [Example 240, trans-3-[(2,3-difluorobenzyl)oxy]-N-[3-(4-ethyl-5-fluoro-6-oxo-1,6-dihydropyrimidin-2-yl)-2-fluoro-4-(trifluoromethyl)benzyl]cyclobutane-1-carboxamide]",3.2
10,"CCc1nc(-c2c(C(F)(F)F)ccc(CNC(=O)[C@H]3C[C@H](OCc4ccc(F)cc4Cl)C3)c2F)[nH]c(=O)c1F [Example 241, trans-3-[(2-chloro-4-fluorobenzyl)oxy]-N-[3-(4-ethyl-5-fluoro-6-oxo-1,6-dihydropyrimidin-2-yl)-2-fluoro-4-(trifluoromethyl)benzyl]cyclobutane-1-carboxamide]",< 1
11,"CCc1nc(-c2c(C(F)(F)F)ccc(CNC(=O)[C@H]3C[C@H](OCc4cccc(Cl)c4F)C3)c2F)[nH]c(=O)c1F [Example 242, trans-3-[(3-chloro-2-fluorobenzyl)oxy]-N-[3-(4-ethyl-5-fluoro-6-oxo-1,6-dihydropyrimidin-2-yl)-2-fluoro-4-(trifluoromethyl)benzyl]cyclobutane-1-carboxamide]",< 1
12,"CCc1nc(-c2c(C(F)(F)F)ccc(CNC(=O)[C@H]3C[C@H](OCc4cc(Cl)ccc4F)C3)c2F)[nH]c(=O)c1F [Example 243, trans-3-[(5-chloro-2-fluorobenzyl)oxy]-N-[3-(4-ethyl-5-fluoro-6-oxo-1,6-dihydropyrimidin-2-yl)-2-fluoro-4-(trifluoromethyl)benzyl]cyclobutane-1-carboxamide]",< 1
13,"CCc1nc(-c2c(C(F)(F)F)ccc(CNC(=O)[C@H]3C[C@H](OCc4ccc(F)c(Cl)c4)C3)c2F)[nH]c(=O)c1F [Example 244, trans-3-[(3-chloro-4-fluorobenzyl)oxy]-N-[3-(4-ethyl-5-fluoro-6-oxo-1,6-dihydropyrimidin-2-yl)-2-fluoro-4-(trifluoromethyl)benzyl]cyclobutane-1-carboxamide]",< 1
14,"CC(C)CO[C@H]1C[C@@H](C(=O)NCc2ccc(C(F)(F)F)c(-c3nc(C(F)(F)F)cc(=O)[nH]3)c2F)C1 [Example 257, cis-N-{2-fluoro-3-[6-oxo-4-(trifluoromethyl)-1,6-dihydropyrimidin-2-yl]-4-(trifluoromethyl)benzyl}-3-isobutoxycyclobutane-1-carboxamide]",5.8

# The remaining lines, values ahead:
row,IC50 [nM],SMILES
1,< 1,"CCc1nc(-c2c(C(F)(F)F)ccc(CNC(=O)[C@H]3C[C@H](OCc4cc(F)cc(Cl)c4)C3)c2F)[nH]c(=O)c1F [Example 245, trans-3-[(3-chloro-5-fluorobenzyl)oxy]-N-[3-(4-ethyl-5-fluoro-6-oxo-1,6-dihydropyrimidin-2-yl)-2-fluoro-4-(trifluoromethyl)benzyl]cyclobutane-1-carboxamide]"
2,< 1,"Cc1nc(-c2c(C(F)(F)F)ccc(CNC(=O)[C@H]3C[C@H](OCc4cccc(Cl)c4)C3)c2F)[nH]c(=O)c1C [Example 246, trans-3-[(3-chlorobenzyl)oxy]-N-[3-(4,5-dimethyl-6-oxo-1,6-dihydropyrimidin-2-yl)-2-fluoro-4-(trifluoromethyl)benzyl]cyclobutane-1-carboxamide]"
3,< 1,"O=c1[nH]c(-c2c(C(F)(F)F)ccc(CNC(=O)[C@H]3C[C@H](OCc4cccc(Cl)c4)C3)c2F)nc2c1CCC2 [Example 247, trans-3-[(3-chlorobenzyl)oxy]-N-[2-fluoro-3-(4-oxo-4,5,6,7-tetrahydro-3H-cyclopenta[d]pyrimidin-2-yl)-4-(trifluoromethyl)benzyl]cyclobutane-1-carboxamide]"
4,< 1,"O=C(NCc1ccc(C(F)(F)F)c(-c2nc(C(F)(F)F)cc(=O)[nH]2)c1F)C1CCC(Oc2ccc(C(F)(F)F)cn2)CC1 (stereo not drawn) [Example 248, N-{2-fluoro-3-[6-oxo-4-(trifluoromethyl)-1,6-dihydropyrimidin-2-yl]-4-(trifluoromethyl)benzyl}-4-{[5-(trifluoromethyl)pyridin-2-yl]oxy}cyclohexane-1-carboxamide]"
5,< 1,"O=c1cc(C(F)(F)F)nc(-c2c(C(F)(F)F)ccc(CNC(=O)[C@H]3C[C@H](Oc4ccc(C(F)(F)F)cn4)C3)c2F)[nH]1 [Example 249, trans-N-{2-fluoro-3-[6-oxo-4-(trifluoromethyl)-1,6-dihydropyrimidin-2-yl]-4-(trifluoromethyl)benzyl}-3-{[5-(trifluoromethyl)pyridin-2-yl]oxy}cyclobutane-1-carboxamide]"
6,< 1,"O=c1cc(C(F)(F)F)nc(-c2c(C(F)(F)F)ccc(CNC(=O)[C@H]3C[C@@H](Oc4ccc(C(F)(F)F)cn4)C3)c2F)[nH]1 [Example 250, cis-N-{2-fluoro-3-[6-oxo-4-(trifluoromethyl)-1,6-dihydropyrimidin-2-yl]-4-(trifluoromethyl)benzyl}-3-{[5-(trifluoromethyl)pyridin-2-yl]oxy}cyclobutane-1-carboxamide]"
7,< 1,"O=c1cc(C(F)(F)F)nc(-c2c(C(F)(F)F)ccc(CNC(=O)[C@H]3C[C@H](Oc4ccccc4Cl)C3)c2F)[nH]1 [Example 251, trans-3-(2-chlorophenoxy)-N-{2-fluoro-3-[6-oxo-4-(trifluoromethyl)-1,6-dihydropyrimidin-2-yl]-4-(trifluoromethyl)benzyl}cyclobutane-1-carboxamide]"
8,1,"O=c1cc(C(F)(F)F)nc(-c2c(C(F)(F)F)ccc(CNC(=O)[C@H]3C[C@H](Oc4cccc(Cl)c4)C3)c2F)[nH]1 [Example 253, trans-3-(3-chlorophenoxy)-N-{2-fluoro-3-[6-oxo-4-(trifluoromethyl)-1,6-dihydropyrimidin-2-yl]-4-(trifluoromethyl)benzyl}cyclobutane-1-carboxamide]"
9,4.6,"O=c1cc(C(F)(F)F)nc(-c2c(C(F)(F)F)ccc(CNC(=O)[C@H]3C[C@@H](Oc4cccc(Cl)c4)C3)c2F)[nH]1 [Example 254, cis-3-(3-chlorophenoxy)-N-{2-fluoro-3-[6-oxo-4-(trifluoromethyl)-1,6-dihydropyrimidin-2-yl]-4-(trifluoromethyl)benzyl}cyclobutane-1-carboxamide]"
10,2.8,"O=c1cc(C(F)(F)F)nc(-c2c(C(F)(F)F)ccc(CNC(=O)[C@H]3C[C@H](Oc4ccc(Cl)cc4)C3)c2F)[nH]1 [Example 255, trans-3-(4-chlorophenoxy)-N-{2-fluoro-3-[6-oxo-4-(trifluoromethyl)-1,6-dihydropyrimidin-2-yl]-4-(trifluoromethyl)benzyl}cyclobutane-1-carboxamide]"
